In ChEMBL document CHEMBL1147225, “Tricin from a malagasy connaraceous plant with potent antihistaminic activity” (J Nat Prod, 2003) one finds Activity and IC50 data, which are given here for 19 compounds.

The nature of series [1]: Cytotoxicity against rat RBL2H3 cells at 500 uM by optical microscope. It counts as cell-based. The settings on record: rbl-2h3, 500 µM.
The test system of series [2] is RBL-2H3. The series can be described thus: Antihistaminic activity in rat RBL2H3 cells assessed as inhibition of DNP-BSA-induced beta-hexosaminidase release preincubated for 10 mins before DNP-BSA challenge. It is filed as functional, cell-based.

A word on the IC50: it is the concentration that gives 50% inhibition. In the case of `O=c1cc(-c2ccc(O)cc2)oc2cc(O)cc(O)c12` [APIGENIN], the Activity entry in series [1] was “Non-toxic”. Besides, the IC50 in series [2] stood at 124 µM. Take `COc1cc(-c2cc(=O)c3c(O)cc(O)cc3o2)cc(OC)c1OC`: the Activity entry in series [1] is recorded as “Non-toxic”. The IC50 in series [2] was found to be 424 µM.

For `O=c1cc(-c2ccccc2)oc2cc(O)cc(O)c12` [CHRYSIN], the Activity result in series [1] is “Non-toxic”. In addition, the IC50 in series [2] is above 500 µM.

As for `O=c1cc(-c2ccc(O)cc2)oc2cc(O)c(O)c(O)c12` [SCUTELLAREIN], the Activity entry in series [1] is listed as “Non-toxic”. The IC50 in series [2] came out at 67.2 µM. On to `COc1c(OC)c(OC)c2c(=O)cc(-c3ccc(O)c(O)c3)oc2c1OC`, for which the Activity entry in series [1] was “Non-toxic”. Moreover, in series [2], the IC50 stood at 203 µM. For the compound `COc1ccc(-c2cc(=O)c3c(O)cc(O)cc3o2)cc1OC`, the Activity result in series [1] is on record as “Non-toxic”. Also, the half-maximal inhibitory concentration (IC50) in series [2] was above 500 µM. In the same order, the values of `COc1cc(OC)cc(-c2cc(=O)c3c(O)cc(O)cc3o2)c1` are “Non-toxic” and above 500 µM. Consider `COc1cc(-c2cc(=O)c3ccccc3o2)cc(OC)c1O`, for which the Activity entry in series [1] was “Non-toxic”. In series [2], the IC50 came out at 97.5 µM.

With `COc1cc(-c2cc(=O)c3c(O)cc(O)cc3o2)cc(OC)c1O` [TRICIN], in series [1], the Activity entry is on record as “Non-toxic”. Further, the IC50 in series [2] stood at 4.83 µM. Consider `COc1c(OC)c(O)c2c(=O)cc(-c3ccc(O)c(O)c3)oc2c1OC` [SIDERITIFLAVONE], for which the Activity entry in series [1] was “Non-toxic”. Also, the concentration for half-maximal inhibition (IC50) in series [2] was above 500 µM. In the same order, the values of `COc1cc(OC)cc(-c2cc(=O)c3ccccc3o2)c1` [3',5'-DIMETHOXYFLAVONE] are “Non-toxic” and above 500 µM. As to `O=C(O)c1cc(=O)c2c(OCC(O)COc3cccc4oc(C(=O)O)cc(=O)c34)cccc2o1` [CROMOLYN SODIUM], the IC50 in series [2] came to 1540 µM. On to `COc1ccc(-c2cc(=O)c3c(OC)c(OC)c(OC)c(OC)c3o2)cc1` [TANGERETIN], for which the Activity result in series [1] is “Non-toxic”. The IC50 in series [2] was above 500 µM. In the same order, the values of `COc1cc2oc(-c3ccc(O)cc3)cc(=O)c2c(O)c1OC` [CIRSIMARITIN] are “Non-toxic” and 161 µM. As for `COc1cc(-c2oc3cc(O)cc(O)c3c(=O)c2C(C)=O)cc(OC)c1O`, the Activity entry in series [1] was “Non-toxic”. Further, in series [2], the IC50 was 212 µM. In the case of `O=c1cc(-c2ccc(O)c(O)c2)oc2cc(O)cc(O)c12` [LUTEOLIN], in series [1], the Activity entry is given as “Non-toxic”. Besides, the IC50 in series [2] was found to be 58.2 µM. As to `O=c1cc(-c2ccccc2)oc2cc(O)c(O)c(O)c12` [BAICALEIN], in series [1], the Activity entry is on record as “Non-toxic”. In series [2], the IC50 was found to be 179 µM.

Take `COc1ccc(-c2cc(=O)c3ccccc3o2)cc1OC` [3',4'-DIMETHOXYFLAVONE]: in series [1], the Activity result is “Non-toxic”. Also, the IC50 in series [2] was above 500 µM. As for `O=c1cc(-c2cc([N+](=O)[O-])cc([N+](=O)[O-])c2)oc2cc(O)cc(O)c12`, in series [1], the Activity entry is given as “Non-toxic”. The IC50 in series [2] is above 500 µM.
